Entries after “also recorded” stand apart in the source; their conditions may differ. Where a name gives a salt, the structure may show the parent alone.
Assays:
[1] = Human plasma stability study (37.5° C.); format: in vitro ADME; settings: for half-life: human, plasma
Description: (§1) The plasma studies were done at three prodrug concentrations: 200, 100 and 50 μg/ml of prodrug. The experimental procedure was as follows: The compound to be tested was taken from a stock aqueous solution of 5 mg/ml and added to the plasma to give the desired prodrug concentration. […] Before centrifugation 200 μl of methanol was added to further precipitate the plasma proteins. The results are expressed in half-lives in hours.
(§2) The chemical and plasma studies were followed by HPLC using a RP C-18 column (150 mm) and a precolumn (50 mm). […] Chart speed was 1 inch/10 minutes.

Solubility in water = format: physicochemical
[2] = Chemical stability study in buffers (hydrolysis half-life, HPLC); format: physicochemical; settings: buffer, read-out: t1/2 (chemical stability) (converted)
Description: In the examples, chemical stability studies for rapamycin and the prodrugs were done at 20 μg/ml with an ionic strength of 0.5. Stabilities at pH 3.3 (0.05M acetate buffer) and pH 7.4 (0.05M phosphate buffer) were studied at 25° and 37.5° C. No antioxidants were added and the buffers were not deoxygenated.
as §2

[3] = Stability to light and to long stirring; format: physicochemical
[4] = Rat liver homogenate stability study (37.5° C.); format: in vitro ADME, male albino Sprague-Dawley rats; settings: 20% rat liver homogenate, pH 7.4, 50 μg/ml, read-out: t1/2 (liver homogenate stability) (converted)
Description: (§3) The liver homogenate studies were done using livers freshly obtained from male albino Sprague-Dawley rats. A 20% liver homogenate was prepared in Sorensen's buffer at pH 7.4. Chemical stability studies of rapamycin and the two prodrugs of Examples 2 and 3 were carried out at concentrations of 20, 50 and 50 μg/ml respectively, at 37.5° C.

[5] = Rat plasma stability study (37.5° C.); format: in vitro ADME, Sprague-Dawley male albino rats; settings: for half-life: rat, plasma, read-out: t1/2 (plasma stability) (converted)
Description: as §1, §2

[6] = Products of decomposition/hydrolysis in plasma and homogenate studies (HPLC, TLC)
Description: as §3

[7] = background statement; cited from earlier work
[8] = human plasma, 50 μg/ml, 37.5° C., read-out: t1/2 (plasma stability) (converted)

half-life [1, 8] [h]	solubility (Solubility in water) [mg/mL]	half-life ([2]; pH 3.3, pH 3.3, 25° C.) [h]	half-life ([2]; pH 7.4, pH 7.4, 25° C.) [h]	half-life [4] [h]	half-life ([5]; 50 μg/ml) [h]	half-life ([5]; 100 μg/ml) [h]	half-life ([5]; 200 μg/ml) [h]	SMILES	stability on prolonged exposure to light [3]	other results
5	> 50	73	45	4.5	1.8	1.8	2.5	CO[C@H]1C[C@@H]2CC[C@@H](C)[C@@](O)(O2)C(=O)C(=O)N2CCCC[C@H]2C(=O)O[C@H]([C@H](C)C[C@@H]2CC[C@@H](O)[C@H](OC)C2)CC(=O)[C@H](C)/C=C(\C)[C@@H](OC(=O)CN(C)C)[C@@H](OC)C(=O)[C@H](C)C[C@H](C)/C=C/C=C/C=C/1C [Example 2, Methanesulfonic Acid Salt of Mono-(28)-N,N Dimethylglycinate Ester of Rapamycin]	slow discoloration of the material; also recorded: appears to discolor upon prolonged exposure to light	t1/2 (plasma stability) ([1]; human plasma, 50 μg/ml, 37.5° C.): 5.0 h; half-life ([1]; human plasma, 100 μg/ml, 37.5° C., read-out: t1/2 (plasma stability) (converted)): 4.8 h; half-life ([1]; human plasma, 200 μg/ml, 37.5° C., read-out: t1/2 (plasma stability) (converted)): 5.6 h; stability to long stirring times ([3]; salt form): unstable to long stirring times; t1/2 (plasma stability) ([5]; 50 μg/ml): 1.75 h
	> 50			3.7		58	60	CCN(CC)CCC(=O)O[C@@H]1/C(C)=C/[C@@H](C)C(=O)C[C@@H]([C@H](C)C[C@@H]2CC[C@@H](O)[C@H](OC)C2)OC(=O)[C@@H]2CCCCN2C(=O)C(=O)[C@]2(O)O[C@@H](CC[C@H]2C)C[C@H](OC)/C(C)=C/C=C/C=C/[C@@H](C)C[C@@H](C)C(=O)[C@@H]1OC [Example 3, Mono-(28)-3-(N,N-Diethylamino)propionate Hydrochloride Salt Ester of Rapamycin]	unstable to prolonged exposure to light; also recorded: appears to discolor upon prolonged exposure to light	observed product of hydrolysis / decomposition [6]: rapamycin being the only observed product of hydrolysis; half life of the prodrug compared with the others [1]: the shortest; time within which half of the prodrug decomposed into products including mainly rapamycin [1]: two and one-half; half-life ([1]; t1/2 (plasma stability)): 2.5 h
	~15							CO[C@H]1C[C@@H]2CC[C@@H](C)[C@@](O)(O2)C(=O)C(=O)N2CCCC[C@H]2C(=O)O[C@H]([C@H](C)C[C@@H]2CC[C@@H](O)[C@H](OC)C2)CC(=O)[C@H](C)/C=C(\C)[C@@H](OC(=O)CCCN2CCCC2)[C@@H](OC)C(=O)[C@H](C)C[C@H](C)/C=C/C=C/C=C/1C [Example 4, Mono-(28)-4'-(N-pyrrolidino)-butyrate Hydrochloride Salt Ester of Rapamycin]	appears to discolor upon prolonged exposure to light	
3		35.8	47.6	5.5	2.83			CO[C@H]1C[C@@H]2CC[C@@H](C)[C@@](O)(O2)C(=O)C(=O)N2CCCC[C@H]2C(=O)O[C@H]([C@H](C)C[C@@H]2CC[C@@H](O)[C@H](OC)C2)CC(=O)[C@H](C)/C=C(\C)[C@@H](O)[C@@H](OC)C(=O)[C@H](C)C[C@H](C)/C=C/C=C/C=C/1C [Rapamycin, rapamycin]		further degradation (TLC) ([6]; plasma and homogenate studies, TLC): further degraded to other decomposition products; half-life ([2]; pH 3.3, pH 3.3, 37.5° C.): 9.9 h; half-life ([2]; pH 7.4, pH 7.4, 37.5° C.): 10.2 h; Solubility in water [7]: 20 micrograms per milliliter

Source: patent publication US4650803A, “Prodrugs of rapamycin” (University of Kansas, priority 1985, dated 1987)
